Laboratory results reported in US9815826B2, “Crystal of azole benzene derivative” (TEIJIN PHARMA LIMITED, priority 2014, dated 2017).

What was measured:
[1] = target: T1, oxidase-type xanthine oxidoreductase (from buttermilk) (Bos taurus, UniProt P80457); assay: Measurement of xanthine oxidase inhibitory activity; assay type: biochemical; settings: xanthine substrate, absorbance 290 nm
T1 construct: purchased Calbiochem Novabiochem Corp; host or cells: natural source: buttermilk
Protocol: After dissolving 2-[4-(2,2-dimethylpropoxy)-3-(1H-1,2,3,4-tetrazol-1-yl)phenyl]-4-methyl-1,3-thiazole-5-carboxylic acid in DMSO (produced by Sigma Corporation) so that the concentration is 20 mM, the solution was used by adjusting the concentration to a desired value for the purpose during use.
The evaluation of the xanthine oxidase inhibitory activity of 2-[4-(2,2-dimethylpropoxy)-3-(1H-1,2,3,4-tetrazol-1-yl)phenyl]-4-methyl-1,3-thiazole-5-carboxylic acid was conducted by the method described in the refference (Method Enzymatic Analysis, 1, 521-522, 1974) with partial modification. This evaluation was carried out by measuring oxidase-type xanthine oxidoreductase acrivity. […] After mixing the plate, absorbance at 290 nm was measured by a microplate reader SPECTRA MAX Plus 384 (manufactured by Molecular Devices, LLC). […] Immediately after mixing, the change of absorbance at 290 nm was measured for 5 minutes. The enzyme activity of DMSO solution without test compound was used as 100% control, and the inhibitory rate of the test compound was calculated. Fifty percent inhibitory concentration of the test compound on the oxidase-type xanthine oxidoreductase activity was calculated by fitting to the dose-response curve.

[2] = tested on: level of uric acid in the blood; assay: Hypouricemic effect (normal rats), 2 hours after administration; assay type: in vivo, Sprague-Dawley male rats; settings: oral
Protocol: The hypouricemic effect was confirmed for 2-[4-(2,2-dimethylpropoxy)-3-(1H-1,2,3,4-tetrazol-1-yl)phenyl]-4-methyl-1,3-thiazole-5-carboxylic acid. A test compound suspended in a 0.5% methylcellulose solution was forcibly administered to 8 to 9 week-old Sprague-Dawley male rats (Japan Charles River Co.) by oral gavage administration using a feeding needle. After the blood was collected from the tail vein at 2 hours after administration, the plasma was separated. The level of uric acid in the blood sample was measured by uricase method using an absorption spectrometer as well as a uric acid determination kit (L type Wako UA F: Wako Pure Chemical Industries, Ltd.). The percentage of hypouricemic effect was determined by the following expression: Percentage of hypouricemic effect (%)=(Level of uric acid of the control animal−Level of uric acid of the test compound-administered animal)×100/Level of uric acid of the control animal.

[3] = target: T2, oxidase-type xanthine oxidoreductase (XO activity) (Rattus norvegicus, UniProt P22985); assay: Prolonged inhibitory effect on tissue and plasma XO activity (pterin-based assay after oral dosing); assay type: in vivo, Sprague-Dawley male rats; settings: about 27 hours after administration
T2 construct: frozen tissues were homogenized with potassium phosphate buffer; from tissue; host or cells: rat liver, kidney, vessel homogenate supernatants and plasma (ex vivo after oral dosing)
From the text: (§1) For “xanthine oxidase” in the present invention, as far as this example, oxidative reaction catalyzing activities which are brought by oxidase-type xanthine oxidoreductase solely and by both oxidase-type and dehydrogenase-type xanthine oxidoreductase are distinguished. The former is “XO activity” and the latter is “XOR activity”. In “tissue XO activity”, “plasma XO activity”, “tissue XOR activity inhibition”, “tissue XOR activity inhibition” and the like, “XO activity” and “XOR activity” have the same meanings as defined above. The tissue includes liver, kidney and vessel. In addition, percentage of XO activity inhibition and that of […] in same sample are thought to be similar, according to the results below.
(§2) The inhibitory effect of tissue XO activity, tissue XOR activity and plasma XO activity was confirmed for 2-[4-(2,2-dimethylpropoxy)-3-(1H-1,2,3,4-tetrazol-1-yl)phenyl]-4-methyl-1,3-thiazole-5-carboxylic acid. A test compound suspended in a 0.5% methylcellulose solution was forcedly administered to 7 to 9 week-old Sprague-Dawley male rats (Japan Charles River Co.) by oral gavage administration using a feeding needle. The blood was collected from the abdominal vein and tissue was collected at 24 or 27 hours after administration. Plasma sample was prepared by centrifugation.
(§3) The tissue XO activity, the tissue XOR activity and the plasma XO activity were measured by the pterin-based assay which utilizes the reaction that pterin is oxidized by each type of xanthine oxidoreductase to produce fluorescent isoxanthopterin. In brief, frozen tissues were homogenized with potassium phosphate buffer, pH 7.4, containing 1 mM ethylenediaminetetraacetic acid (EDTA) and protease inhibitors to prepare tissue concentration as follow (liver: 25 mg/mL, kidney: 25 mg/mL, vessel: 30 mg/mL). Then the homogenates were centrifuged 12,000 rpm for 15 min at 4° C. When measured XO activity, the supernatant of tissue and plasma were respectively co-incubated with 50 μM pterin solution at 37° C. When measured XOR activity, the supernatant of tissue homogenate was co-incubated with 50 μM pterin and 50 μM methylene blue solution at 37° C. As a control, oxidase-type xanthine oxidoreductase (from buttermilk, manufactured by Calbiochem Novabiochem Corp.) was also incubated with pterin solution in the same manner. XO activity and XOR activity of the samples were determined from fluorescence intensity which normalized by the intensity value of control and protein concentration.
(§4) The percentage of XO activity inhibition and XOR activity inhibition were determined by the following expression: Percentage of XO or XOR activity inhibition (%)=(XO or XOR activity of the control animal−XO or XOR activity of the test compound-administered animal)×100/XO or XOR activity of the control animal.

[4] = target: T3, oxidase-type and dehydrogenase-type xanthine oxidoreductase (XOR activity) (Rattus norvegicus, UniProt P22985); assay: Prolonged inhibitory effect on tissue XOR activity (pterin-based assay with methylene blue after oral dosing); assay type: in vivo, Sprague-Dawley male rats; settings: for XOR activity inhibition compared to the control animal: 27 hours after drug administration; for XOR inhibitory activity, % of inhibition (vs. vehicle): 24 hours after administration
T3 construct: frozen tissues were homogenized with potassium phosphate buffer; from tissue; host or cells: rat liver, kidney, vessel homogenate supernatants and plasma (ex vivo after oral dosing)
From the text: as §1, §2, §3, §4

[5] = tested on: level of uric acid in the plasma; assay: Hypouricemic effect (oxonic acid-induced hyperuricemic beagle dogs); assay type: in vivo, beagle dog; settings: oral, 10 mg/kg, 8 hours after administration
Protocol: The hypouricemic effect of 2-[4-(2,2-dimethylpropoxy)-3-(1H-1,2,3,4-tetrazol-1-yl)phenyl]-4-methyl-1,3-thiazole-5-carboxylic acid in oxonic acid-induced hyperuricmic beagle dog was confirmed. A test compound suspended in a 0.5% methylcellulose solution was administered to beagle dog (Kitayama labes) by oral gavage administration. Potassium oxonate (50 mg/kg) was subcutaneously administrated before and 4 hours after compound administration. After the blood was collected from the cephalic vein at 8 hours after administration, the plasma was separated. The level of uric acid in the plasma sample was measured by LC-MS/MS method and the percentage of hypouricemic effect was determined by the following expression: Percentage of hypouricemic effect (%)=(Level of uric acid of the control animal−Level of uric acid of the test compound-administered animal)×100/Level of uric acid of the control animal.

[6] = tested on: level of uric acid in the blood; assay: Prolonged hypouricemic effect (normal rats), 24 hours after administration; assay type: in vivo, Sprague-Dawley male rats; settings: oral
Protocol: 2-[4-(2,2-dimethylpropoxy)-3-(1H-1,2,3,4-tetrazol-1-yl)phenyl]-4-methyl-1,3-thiazole-5-carboxylic acid was administered to Sprague-Dawley male rats in the same manner as in Reference Example 4. After the blood was collected from the tail vein 24 hours after administration, the plasma was separated. The level of uric acid in the blood was measured by an uricase method using an absorption spectrometer and a uric acid determination kit (L type Wako UA F: Wako Pure Chemical Industries, Ltd.). The percentage of hypouricemic effect was determined by the following expression: Percentage of hypouricemic effect (%)=(Level of uric acid of the control animal−Level of uric acid of the test compound-administered animal)×100/Level of uric acid of the control animal.

T3 sequence (P22985 whole entry): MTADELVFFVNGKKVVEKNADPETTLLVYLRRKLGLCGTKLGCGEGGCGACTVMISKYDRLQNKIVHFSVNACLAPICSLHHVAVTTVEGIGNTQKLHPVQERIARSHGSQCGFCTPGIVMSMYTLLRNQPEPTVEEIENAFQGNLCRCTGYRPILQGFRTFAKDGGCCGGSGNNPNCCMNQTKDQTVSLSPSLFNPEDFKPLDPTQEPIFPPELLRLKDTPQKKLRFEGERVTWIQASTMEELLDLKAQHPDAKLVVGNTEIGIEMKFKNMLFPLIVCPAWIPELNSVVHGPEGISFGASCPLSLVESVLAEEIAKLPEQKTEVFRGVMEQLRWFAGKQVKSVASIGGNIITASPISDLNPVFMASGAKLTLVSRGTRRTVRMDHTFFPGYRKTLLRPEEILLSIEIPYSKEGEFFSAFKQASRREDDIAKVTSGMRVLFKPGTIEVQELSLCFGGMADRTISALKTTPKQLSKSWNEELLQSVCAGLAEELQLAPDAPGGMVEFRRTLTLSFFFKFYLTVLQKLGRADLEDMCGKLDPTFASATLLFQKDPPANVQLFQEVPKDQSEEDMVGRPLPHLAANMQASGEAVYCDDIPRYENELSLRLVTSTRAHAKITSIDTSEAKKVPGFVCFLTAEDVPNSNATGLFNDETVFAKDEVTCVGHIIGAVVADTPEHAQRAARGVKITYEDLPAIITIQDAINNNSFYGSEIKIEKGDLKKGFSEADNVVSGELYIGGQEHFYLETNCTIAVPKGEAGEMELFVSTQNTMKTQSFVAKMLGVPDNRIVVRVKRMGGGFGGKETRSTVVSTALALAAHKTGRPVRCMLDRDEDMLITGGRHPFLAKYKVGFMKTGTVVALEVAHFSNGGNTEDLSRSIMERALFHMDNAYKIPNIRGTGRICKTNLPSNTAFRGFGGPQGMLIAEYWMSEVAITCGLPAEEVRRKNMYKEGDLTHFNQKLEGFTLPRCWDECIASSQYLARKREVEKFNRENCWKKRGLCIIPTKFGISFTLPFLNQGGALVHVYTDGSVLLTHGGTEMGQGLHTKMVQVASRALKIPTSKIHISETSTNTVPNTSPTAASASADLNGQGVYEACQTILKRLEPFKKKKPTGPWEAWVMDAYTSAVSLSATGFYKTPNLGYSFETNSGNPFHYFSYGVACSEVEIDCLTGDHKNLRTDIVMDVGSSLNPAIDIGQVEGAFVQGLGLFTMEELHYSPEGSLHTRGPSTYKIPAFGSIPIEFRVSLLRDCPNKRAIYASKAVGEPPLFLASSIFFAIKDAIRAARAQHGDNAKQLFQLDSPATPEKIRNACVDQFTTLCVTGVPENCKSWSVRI
T2 sequence (P22985 whole entry): as above
T1 sequence (P80457 whole entry): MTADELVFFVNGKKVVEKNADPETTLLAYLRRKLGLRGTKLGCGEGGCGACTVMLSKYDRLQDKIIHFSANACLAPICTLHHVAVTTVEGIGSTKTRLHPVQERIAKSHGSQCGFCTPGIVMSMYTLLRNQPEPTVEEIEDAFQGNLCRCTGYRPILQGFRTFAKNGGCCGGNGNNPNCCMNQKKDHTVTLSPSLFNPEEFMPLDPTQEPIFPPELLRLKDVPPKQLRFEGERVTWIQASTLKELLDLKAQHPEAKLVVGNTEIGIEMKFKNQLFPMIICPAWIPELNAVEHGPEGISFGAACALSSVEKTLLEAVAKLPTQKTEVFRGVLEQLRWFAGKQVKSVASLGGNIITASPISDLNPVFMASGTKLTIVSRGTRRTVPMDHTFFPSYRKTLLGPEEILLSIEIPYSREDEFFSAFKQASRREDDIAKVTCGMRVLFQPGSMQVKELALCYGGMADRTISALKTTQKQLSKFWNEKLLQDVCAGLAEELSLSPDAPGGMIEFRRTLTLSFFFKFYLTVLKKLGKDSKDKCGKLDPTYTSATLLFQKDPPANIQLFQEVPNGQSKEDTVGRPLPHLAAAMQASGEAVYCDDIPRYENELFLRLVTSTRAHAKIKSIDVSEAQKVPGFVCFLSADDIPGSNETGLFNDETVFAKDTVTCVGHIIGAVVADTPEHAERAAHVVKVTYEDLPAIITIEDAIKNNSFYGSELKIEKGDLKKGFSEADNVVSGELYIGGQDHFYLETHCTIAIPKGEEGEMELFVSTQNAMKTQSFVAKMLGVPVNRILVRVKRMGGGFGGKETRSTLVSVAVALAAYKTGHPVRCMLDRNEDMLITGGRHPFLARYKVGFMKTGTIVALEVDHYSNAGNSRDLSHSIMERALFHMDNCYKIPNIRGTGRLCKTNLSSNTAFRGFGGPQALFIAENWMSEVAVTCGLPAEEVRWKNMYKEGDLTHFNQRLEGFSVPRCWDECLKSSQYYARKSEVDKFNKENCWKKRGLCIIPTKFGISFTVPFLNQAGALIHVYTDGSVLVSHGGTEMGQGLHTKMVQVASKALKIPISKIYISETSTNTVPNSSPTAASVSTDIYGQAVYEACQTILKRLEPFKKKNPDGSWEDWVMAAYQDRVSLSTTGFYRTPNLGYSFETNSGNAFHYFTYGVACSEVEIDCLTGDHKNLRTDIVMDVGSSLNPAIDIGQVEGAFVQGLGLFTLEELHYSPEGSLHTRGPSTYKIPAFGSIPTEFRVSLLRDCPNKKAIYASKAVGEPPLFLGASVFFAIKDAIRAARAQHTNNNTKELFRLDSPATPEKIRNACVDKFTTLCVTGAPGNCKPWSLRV

In the case of `Cc1nc(-c2ccc(OCC(C)(C)C)c(-n3cnnn3)c2)sc1C(=O)O` [2-[4-(2,2-dimethylpropoxy)-3-(1H-1,2,3,4-tetrazol-1-yl)phenyl]-4-methyl-1,3-thiazole-5-carboxylic acid], the IC50 [1] is reported as 1 to 5 nM, the “Percentage of hypouricemic effect” value ([2]; 1 mg/kg) is reported as ≥ 50% and the “Percentage of hypouricemic effect” value ([2]; 10 mg/kg) is reported as ≥ 50%. For the same molecule, the “XO inhibitory activity, % of inhibition (vs. vehicle)” value (“XO inhibitory activity, %” below) ([3]; rat kidney, 1 mg/kg oral) was “≧60%”, the “XO inhibitory activity, %” value ([3]; rat kidney, 10 mg/kg oral, 10 mg/kg) was “≧70%” and the “XO inhibitory activity, %” value ([3]; rat kidney, 10 mg/kg oral, listed as present compound, 10 mg/kg) was ≥ 70%. For the same molecule, the “XO inhibitory activity, %” value ([3]; rat liver, 1 mg/kg oral) was “≧80%”, the “XO inhibitory activity, %” value ([3]; rat plasma, 1 mg/kg oral, 1 mg/kg) was “≧25%” and the “XO inhibitory activity, %” value ([3]; rat plasma, 1 mg/kg oral, listed as present compound, 1 mg/kg) was ≥ 25%. The “XO inhibitory activity, %” value ([3]; rat plasma, 10 mg/kg oral, 10 mg/kg) was “≧40%”, the “XO inhibitory activity, %” value ([3]; rat plasma, 10 mg/kg oral, listed as present compound, 10 mg/kg) was ≥ 40% and the “XOR activity inhibition compared to the control animal” value ([4]; rat kidney, 1 mg/kg oral) was ≥ 60%. For the same molecule, the “XOR inhibitory activity, % of inhibition (vs. vehicle)” value (“XOR inhibitory activity, %” below) ([4]; rat liver, 1 mg/kg oral, 1 mg/kg) was “≧80%”, the “XOR inhibitory activity, %” value ([4]; rat liver, 1 mg/kg oral, listed as present compound, 1 mg/kg) was ≥ 80% and the “XOR activity inhibition compared to the control animal” value ([4]; rat liver, 1 mg/kg oral) was ≥ 80%. For the same molecule, the “XOR inhibitory activity, %” value ([4]; rat vessel, 1 mg/kg oral, 1 mg/kg) was “≧30%”, the “XOR inhibitory activity, %” value ([4]; rat vessel, 1 mg/kg oral, listed as present compound, 1 mg/kg) was ≥ 30% and the “XOR inhibitory activity, %” value ([4]; rat vessel, 10 mg/kg oral, 10 mg/kg) was “≧50%”. The “XOR inhibitory activity, %” value ([4]; rat vessel, 10 mg/kg oral, listed as present compound, 10 mg/kg) was ≥ 50%, the “Percentage of hypouricemic effect” value [5] was ≥ 80% and the “Percentage of hypouricemic effect” value ([6]; 3 mg/kg) was ≥ 40%. For the same molecule, the “Percentage of hypouricemic effect” value ([6]; 10 mg/kg) was ≥ 50%.
